Experiments:
HT-29 = experiment: MTT antiproliferative assay, HT-29; settings: Homo sapiens, HT-29, 48 h, read-out: IC50 HT-29
Protocol: (§1) MTT assay was used to determine the cytotoxic activity of target compounds against different cell lines. […] Then, the cells were treated with five doses of test compounds (pre-dissolved in DMSO), and 0.1% DMSO was used as a negative control. […] The results expressed as IC50 were the average of three determinations calculated by using the Bacus Laboratories Incorporated Slide Scanner (Bliss) software.

c-Met = molecular target: T1, c-Met (Homo sapiens, UniProt P08581); experiment: In vitro c-Met enzymatic assay (HTRF); assay type: biochemical; settings: HTRF assay; mean ± SD, triplicate; read-out: IC50 against c-Met
T1 construct: purchased Invitrogen (Waltham, MA)
Protocol: Inhibition of target compounds on c-Met kinase activity was measured by using the homogeneous time-resolved fluorescence (HTRF) assay.
The tyrosine kinases inhibitory activities of target compounds were evaluated in 384-well microtiter plates using purified kinases purchased from Invitrogen (Waltham, MA) by homogeneous time-resolved fluorescence (HTRF) assay. The HTRF KinEASE TK kit was performed according to the instructions. After the kinases and test compounds were incubated at 25–30 °C for 5 min, the kinase reactions were initiated by addition of 39 μL of kinase reaction buffer solution and incubated at 25–30 °C for 30 min. The reactions were quenched by addition 10 µL mixed detection solution. […] The inhibition rate (%) was calculated using the following equation: inhibition rate = [(activity of enzyme with tested compound – min)/(max – min)] × 100 (max: the enzyme activity in the presence of enzyme, substrates and cofactors; min: the enzyme activity in the presence of substrates, cofactors and in the absence of enzyme). IC50 value was calculated from the inhibition curve using GraphPad Prism 5.0 software (La Jolla, CA).

A549 = experiment: MTT antiproliferative assay, A549; settings: Homo sapiens, A549, 48 h, read-out: IC50 A549
Protocol: as §1

MKN-45 = experiment: MTT antiproliferative assay, MKN-45; settings: Homo sapiens, MKN-45, 48 h, read-out: IC50 MKN-45
Protocol: as §1

HUVEC = experiment: MTT cytotoxicity assay, normal HUVEC cells; settings: Homo sapiens, 48 h, read-out: IC50 HUVEC
Protocol: as §1

FHC = experiment: MTT cytotoxicity assay, normal FHC cells; settings: Homo sapiens, 48 h, read-out: IC50 FHC
Protocol: as §1

MDA-MB-231 = experiment: MTT antiproliferative assay, MDA-MB-231; settings: Homo sapiens, MDA-MB-231, 48 h, read-out: IC50 MDA-MB-231
Protocol: as §1

T1 sequence (P08581 25-1390): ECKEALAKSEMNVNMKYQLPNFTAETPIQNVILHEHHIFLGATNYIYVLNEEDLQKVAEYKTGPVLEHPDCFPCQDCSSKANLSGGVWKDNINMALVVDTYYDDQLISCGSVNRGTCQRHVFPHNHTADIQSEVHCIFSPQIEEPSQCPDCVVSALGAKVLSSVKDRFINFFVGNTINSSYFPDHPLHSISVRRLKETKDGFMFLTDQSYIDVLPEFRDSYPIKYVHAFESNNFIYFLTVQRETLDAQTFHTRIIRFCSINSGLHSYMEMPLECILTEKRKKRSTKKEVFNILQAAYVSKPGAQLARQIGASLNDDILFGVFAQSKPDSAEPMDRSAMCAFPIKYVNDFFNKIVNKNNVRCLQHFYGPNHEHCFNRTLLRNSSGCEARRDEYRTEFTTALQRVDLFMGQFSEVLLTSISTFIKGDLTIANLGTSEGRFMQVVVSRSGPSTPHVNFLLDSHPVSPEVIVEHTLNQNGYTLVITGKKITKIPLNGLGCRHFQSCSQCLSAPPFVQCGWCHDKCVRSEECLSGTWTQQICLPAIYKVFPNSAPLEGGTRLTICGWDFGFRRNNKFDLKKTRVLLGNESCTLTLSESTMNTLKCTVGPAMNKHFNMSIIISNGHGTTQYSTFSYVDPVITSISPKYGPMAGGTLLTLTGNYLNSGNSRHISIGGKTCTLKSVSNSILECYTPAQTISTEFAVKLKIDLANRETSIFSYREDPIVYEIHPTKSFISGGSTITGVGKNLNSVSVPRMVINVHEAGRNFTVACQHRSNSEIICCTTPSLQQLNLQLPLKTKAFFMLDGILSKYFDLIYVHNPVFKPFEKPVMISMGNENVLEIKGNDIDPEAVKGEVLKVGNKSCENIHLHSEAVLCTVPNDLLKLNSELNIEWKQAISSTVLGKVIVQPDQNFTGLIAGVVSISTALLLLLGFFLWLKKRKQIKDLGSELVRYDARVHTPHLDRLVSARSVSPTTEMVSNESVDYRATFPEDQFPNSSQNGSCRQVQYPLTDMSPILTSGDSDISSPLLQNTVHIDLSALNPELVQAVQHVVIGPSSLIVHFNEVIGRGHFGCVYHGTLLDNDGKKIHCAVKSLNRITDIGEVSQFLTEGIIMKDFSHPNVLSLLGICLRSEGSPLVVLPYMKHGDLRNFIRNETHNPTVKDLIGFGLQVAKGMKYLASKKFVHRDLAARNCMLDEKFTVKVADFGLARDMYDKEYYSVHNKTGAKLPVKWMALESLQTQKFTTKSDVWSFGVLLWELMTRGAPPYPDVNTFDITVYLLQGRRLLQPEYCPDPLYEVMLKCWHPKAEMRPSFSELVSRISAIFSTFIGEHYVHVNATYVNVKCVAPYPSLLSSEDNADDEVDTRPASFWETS

Row | Structure (SMILES) | IC50 (HT-29) [µM] | IC50 (c-Met) [µM] | IC50 (A549) [µM] | IC50 (MKN-45) [µM] | IC50 (HUVEC) [µM] | melting point [°C] | IC50 (FHC) [µM] | IC50 (MDA-MB-231) [µM]
1 | O=C(Nc1ccc(Oc2ncnc3ccsc23)c(F)c1)c1nc(-c2ccc(F)cc2)cs1 [Compound 51t, N-(3-Fluoro-4-(thieno[3,2-d]pyrimidin-4-yloxy)phenyl)-4-(4-fluorophenyl)thiazole-2-carboxamide] | 23.1 ± 3.34 | 0.0404 ± 0.00366 | 14.5 ± 2.87 | 5.45 ± 0.65 | 41.4 ± 2.39 | 146 to 148 | 67.4 ± 4.38 | 36.6 ± 2.83
2 | O=C(Nc1ccc(Oc2ccnc(Cl)c2)c(F)c1)c1nc(-c2ccccc2F)cs1 [Compound 51ac, N-(4-((2-Chloropyridin-4-yl)oxy)-3-fluorophenyl)-4-(2-fluorophenyl)thiazole-2-carboxamide] | 9.53 ± 0.75 | 0.0185 ± 0.00305 | 7.54 ± 0.62 | 1.94 ± 0.26 | 19.4 ± 0.83 | 168 to 170 | 31.3 ± 2.63 | 18.1 ± 2.14
3 | COc1ccc(-c2csc(C(=O)Nc3ccc(Oc4ccnc(Cl)c4)c(F)c3)n2)cc1OC [Compound 51z, N-(4-((2-Chloropyridin-4-yl)oxy)-3-fluorophenyl)-4-(3,4-dimethoxyphenyl)thiazole-2-carboxamide] | 15.6 ± 2.51 | 0.0455 ± 0.00628 | 11.3 ± 1.96 | 4.05 ± 1.12 | 26.5 ± 3.84 | 120 to 122 | > 100 | 20.5 ± 3.14
4 | COc1cc2nccc(Oc3ccc(NC(=O)c4nc(-c5ccccc5)cs4)c(F)c3)c2cc1OC [Compound 51i, N-(4-((6,7-Dimethoxyquinolin-4-yl)oxy)-2-fluorophenyl)-4-phenylthiazole-2-carboxamide] | 22.9 ± 2.43 | 0.0312 ± 0.00416 | 15.6 ± 1.86 | 5.35 ± 0.84 | 44.3 ± 5.64 | 112 to 114 | 60.2 ± 5.33 | 35.5 ± 4.62
5 | O=C(Nc1ccc(Oc2ccnc(Cl)c2)c(F)c1)c1nc(-c2ccc(F)cc2)cs1 [Compound 51aa, N-(4-((2-Chloropyridin-4-yl)oxy)-3-fluorophenyl)-4-(4-fluorophenyl)thiazole-2-carboxamide] | 4.36 ± 0.38 | 0.0156 ± 0.00243 | 4.83 ± 0.72 | 0.95 ± 0.18 | 15.3 ± 2.16 | 150 to 152 | 24.6 ± 4.23 | 11.7 ± 1.39
6 | O=C(Nc1ccc(Oc2ncnc3sccc23)c(F)c1)c1nc(-c2ccccc2)cs1 [Compound 51u, N-(3-Fluoro-4-(thieno[2,3-d]pyrimidin-4-yloxy)phenyl)-4-phenylthiazole-2-carboxamide] | 26.4 ± 3.22 | 0.0404 ± 0.00553 | 16.8 ± 2.28 | 5.53 ± 1.26 | 38.8 ± 3.53 | 78 to 80 | 48.2 ± 5.04 | 35.9 ± 2.52
7 | COc1cc2nccc(Oc3ccc(NC(=O)c4nc(-c5ccccc5)cs4)cc3Cl)c2cc1OC [Compound 51l, N-(3-Chloro-4-((6,7-dimethoxyquinolin-4-yl)oxy)phenyl)-4-phenylthiazole-2-carboxamide] | 20.9 ± 3.56 | 0.0319 ± 0.00451 | 13.2 ± 2.41 | 6.23 ± 0.72 | 40.9 ± 2.32 | 146 to 148 | 51.6 ± 3.96 | 32.1 ± 2.54
8 | O=C(Nc1ccc(Oc2ccnc(Cl)c2)c(F)c1)c1nc(-c2cccc(Cl)c2)cs1 [Compound 51ae, 4-(3-Chlorophenyl)-N-(4-((2-chloropyridin-4-yl)oxy)-3-fluorophenyl)thiazole-2-carboxamide] | 9.62 ± 1.56 | 0.0234 ± 0.00361 | 7.08 ± 0.95 | 1.95 ± 0.68 | 13.1 ± 0.95 | 171 to 173 | 24.5 ± 1.84 | 19.2 ± 2.35
9 | O=C(Nc1ccc(Oc2ccnc(Cl)c2)c(F)c1)c1nc(-c2ccc(F)c(F)c2)cs1 [Compound 51al, N-(4-((2-Chloropyridin-4-yl)oxy)-3-fluorophenyl)-4-(3,4-difluorophenyl)thiazole-2-carboxamide] | 1.94 ± 0.65 | 0.00523 ± 0.00074 | 2.26 ± 0.68 | 0.35 ± 0.07 | 6.14 ± 0.75 | 170 to 172 | 10.2 ± 1.65 | 5.82 ± 0.73
10 | O=C(Nc1ccc(Oc2ncnc3ccsc23)c(F)c1)c1nc(-c2ccccc2)cs1 [Compound 51s, N-(3-Fluoro-4-(thieno[3,2-d]pyrimidin-4-yloxy)phenyl)-4-phenylthiazole-2-carboxamide] | 25.6 ± 1.76 | 0.0433 ± 0.00625 | 18.4 ± 2.33 | 6.05 ± 0.94 | 43.4 ± 3.65 | 95 to 97 | 65.5 ± 5.56 | 32.8 ± 2.7
11 | COc1cc2nccc(Oc3ccc(NC(=O)c4nc(-c5ccccc5)cs4)c(C)c3)c2cc1OC [Compound 51m, N-(4-((6,7-Dimethoxyquinolin-4-yl)oxy)-2-methylphenyl)-4-phenylthiazole-2-carboxamide] | 22.3 ± 1.75 | 0.0398 ± 0.00547 | 14.1 ± 1.87 | 6.43 ± 0.76 | 38.8 ± 3.55 | 209 to 211 | 49.6 ± 5.04 | 35.2 ± 4.23
12 | COc1cc2nccc(Oc3ccc(NC(=O)c4nnc(-c5ccccc5)s4)cc3)c2cc1OC [Compound 51c, N-(4-((6,7-Dimethoxyquinolin-4-yl)oxy)phenyl)-5-phenyl-1,3,4-thiadiazole-2-carboxamide] | 29.3 ± 3.85 | 0.0457 ± 0.00388 | 20.6 ± 1.96 | 6.94 ± 1.06 | 53.5 ± 4.62 | 141 to 143 | 71.3 ± 5.25 | 34.7 ± 2.58
13 | COc1cc2nccc(Oc3ccc(NC(=O)c4nc(-c5ccccc5)cs4)cc3C)c2cc1OC [Compound 51n, N-(4-((6,7-Dimethoxyquinolin-4-yl)oxy)-3-methylphenyl)-4-phenylthiazole-2-carboxamide] | 24.4 ± 2.14 | 0.0456 ± 0.00603 | 17.5 ± 2.25 | 7.21 ± 0.95 | > 100 | 136 to 138 | > 100 | –
14 | COc1cc2nccc(Oc3ccc(NC(=O)c4nc(-c5ccc(F)cc5)cs4)cc3)c2cc1OC [Compound 51f, N-(4-((6,7-Dimethoxyquinolin-4-yl)oxy)phenyl)-4-(4-fluorophenyl)thiazole-2-carboxamide] | 22.4 ± 1.94 | 0.0291 ± 0.00353 | 14.7 ± 3.27 | 4.95 ± 0.82 | 45.5 ± 3.83 | 84 to 86 | – | 31.8 ± 2.56
15 | COc1ccc(-c2csc(C(=O)Nc3ccc(Oc4ccnc(Cl)c4)c(F)c3)n2)cc1 [Compound 51y, N-(4-((2-Chloropyridin-4-yl)oxy)-3-fluorophenyl)-4-(4-methoxyphenyl)thiazole-2-carboxamide] | 14 ± 2.26 | 0.0367 ± 0.00297 | 9.28 ± 1.85 | 3.22 ± 0.86 | 32.4 ± 1.98 | 191 to 193 | – | 28.5 ± 2.35
16 | O=C(Nc1ccc(Oc2ccnc(Cl)c2)c(F)c1)c1nc(-c2ccc(C(F)(F)F)cc2)cs1 [Compound 51ag, N-(4-((2-Chloropyridin-4-yl)oxy)-3-fluorophenyl)-4-(4(trifluoromethyl)phenyl)thiazole-2-carboxamide] | 20.4 ± 3.02 | 0.0394 ± 0.00525 | 12.4 ± 2.85 | 5.84 ± 1.21 | 43.2 ± 3.53 | 212 to 214 | – | 30.6 ± 2.64

From publication PMC10467532, “Design, synthesis, and biological evaluation of thiazole/thiadiazole carboxamide scaffold-based derivatives as potential c-Met kinase inhibitors for cancer treatment” (Journal of Enzyme Inhibition and Medicinal Chemistry, 2023)
